Test results taken from US20040086942A1, “Ige receptor antagonists” (priority 2003, published 2004).
Several values for one entry are separate records, joined by “and”; a condition that tells them apart may be missing. Equal entries are not always repeated. Where two headings read alike, the source gives them in different places. Each block holds one compound with its values, some of them ahead of it. Where a SMILES comes first, the peptide text is derived from it. Bridges are numbered along the chain shown (N, C = ends). Roman numbers before positions name the chains, in order.

Assays:
FcεRI-IgG = molecular target: T1, FcεRI-IgG (Homo sapiens, UniProt P12319); assay: g3 phage competitive binding ELISA (competition with soluble FcεRI-IgG); conditions: for Relative (IC50) (fold weaker): relative to g3c.42, NDB = no detectable binding
T1 construct: consisting of the extracellular domain of FcεR Ifused to the Fc domain of IgG; host or cells: CHO cells
T1 sequence (P12319 26-205 limits assumed): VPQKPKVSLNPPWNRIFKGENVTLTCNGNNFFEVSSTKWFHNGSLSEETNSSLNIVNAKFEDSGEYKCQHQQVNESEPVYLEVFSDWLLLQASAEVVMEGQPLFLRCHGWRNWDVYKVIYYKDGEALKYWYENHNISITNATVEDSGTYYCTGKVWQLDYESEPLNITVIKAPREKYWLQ
Description: A phage based competitive binding ELISA for immobilized FcεRI-IgG in the presence of titrated amounts of soluble FcεRI-IgG was performed on each of the clones.
Peptide sequences from g8p-fused phage clones that specifically bound FcεRI-IgG were transferred onto a g3p-display format for monovalent phage display (Bass et al., Proteins 8, 309-314 (1990); Lowman et al., Biochemistry 30, 10832-10838 (1991)). An oligonucleotide encoding for each desired peptide with additional 5′ and 3′ base pair that overlapped with g3 was synthesized. This oligonucleotide was annealed with a g3 single stranded DNA phagemid template. The mutagenesis reaction was transformed into XL-1 Blue E. coli and plated on LB-carb+ agar plates. Individual colonies were propagated in 5 mL of 2YT broth, tetracycline, carbenicillin and VCSM13 helper phage (Stratagene). Single stranded DNA was isolated from the purified phage particles and sequenced to confirm the insertion of the phage peptide sequence. 25 mL preparations of g3 phage clones were propagated overnight and purified by PEG precipitation. After resuspension of the phage pellet in 1.0 mL of PBS, it was serially diluted ⅓ and incubated with immobilized FcεRI-IgG 2 ug/mL in a 96 well Maxisorp microtiter plate for 1 hour at room temperature. The wells were washed 10× with PBST then incubated with 100 uL of anti M13 phage HRP as described above. An OD(492) value corresponding to less than 50% binding was selected and the purified phage clones were diluted to yield this normalized level of signal. […] The mixture was then transferred to 96 well microtiter dishes containing immobilized FcεRI-IgG. After a 1-hour incubation period, the plates were washed 10 times, incubated with anti M13-HRP conjugated antibody and developed with OPD as described above. The data was plotted, and 4-parameter fits (KaleidaGraph 3.0) used for calculation of IC50 values.
Alanine substitutions were made at various positions throughout the peptide sequence for monovalent (g3p) phage display using site directed mutagenesis as described (Kunkel et al., Methods Enzymol. 204, 125-139 (1991)). In addition, stepwise N-terminal and C-terminal truncations of the peptide sequence were constructed. All constructs were made by designing oligonucleotides corresponding to the desired substitution or truncation, with an additional 18 bp of DNA overlapping the peptide or g3 phage DNA sequence. The phage clones were propagated overnight following infection in XL-1 Blue E. coli. Purified phage preparations were titered and assayed for binding to immobilized receptor. FcεRI-IgG competition assays were performed as described above.

[1] = 2D NMR structural score versus reference peptide; type: physicochemical; set-up: key to Structure Score: +++, peptide structurally similar to reference; +, structurally similar to reference but significantly less stable; +/−, peptide has some elements of stable structure, but the conformation differs from the reference structure; −, peptide is predominantly unstructured; *peptide IGE037 (SEQ ID NO:128) was initially unstructured (monomeric form), but became structured after spontaneous dimer formation; conditions: reference IGE134
Outline: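 Backbone ¹H resonances assigned by 2D NMR and ³JHN-Hα coupling constants measured against a reference peptide. Structure scored similar when chemical shifts, coupling constants and NOEs are consistent with the reference structure.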

FcεRIα = molecular target: T2, FcεRIα (Homo sapiens, UniProt P12319); assay: surface plasmon resonance biosensor direct-binding assay; conditions: midpoint of 4-parameter fit to peptide saturation curve, immobilized receptor; read-out: Binding affinity: EC50 (uM) ± s.d.
T2 construct: human FcεRI(aa 1-176) was expressed using a baculovirus secretion expression system; host or cells: Hi-5 insect cells infected with baculovirus (virus produced in Sf9; transfer vector pAcGP67)
T2 sequence (P12319 26-201): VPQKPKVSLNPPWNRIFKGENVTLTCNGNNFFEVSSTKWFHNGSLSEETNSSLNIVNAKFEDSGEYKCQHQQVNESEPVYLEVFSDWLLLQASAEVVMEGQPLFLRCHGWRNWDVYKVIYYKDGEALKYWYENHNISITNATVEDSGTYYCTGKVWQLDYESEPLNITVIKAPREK
Description: Several peptides were also tested in a direct-binding assay using a surface plasmon resonance biosensor (Lofas & Johnsson, J. Chem. Soc. Commun. 21, 1526-1528 (1990)). FcεRIα, produced in baculovirus infected insect cells, was immobilized by the surface thiol method (BIAcore Methods Manual Supplement 5a, BIAcore, Inc., Piscataway, N.J.). Briefly, receptor was reacted with 2-(2pyridinyldithio)ethaneamine hydrochloride (PDEA; Natake & Swaisgood, J. Biochem. 74, 77-86 (1973)), desalted into 10 mM sodium acetate (pH 4.8) and stored in aliquots at −80″C. Thawed PDEA-receptor was injected over carboxymethyl-dextran (B1 or CM5, BIAcore, Inc.) biosensor chips preactivated with N-ethyl-N′-(3-dimethylaminopropyl)-carbodiimide hydrochloride (EDC) and N-hydroxysuccinimide (NHS), cystamine, and DTT. Following coupling, reactive groups on the chip were quenched with […] and ethanolarine. Serial dilutions of peptide in running buffer (phosphate-buffered saline containing 0.05% Tween-20, 0.01% sodium azide) were injected over the immobilized receptor, and the net amount of peptide bound at steady-state was measured as the net change in response (RU) at a point just prior to termination of peptide injection, compared to a running-buffer baseline. Binding affinities (Table 10) are reported as the midpoint (EC50) of a 4-parameter fit to the peptide saturation curve.

[2] = molecular target: T3, alpha subunit of the human FcεRI receptor (Homo sapiens, UniProt P12319); assay: cell-based 125I-IgE binding inhibition assay on CHO FcεRI+ cells; conditions: for IC50: IgE-inhibition activity of synthetic peptides, read-out: Inhibition activity: C+hd 50 +l (uM) ± s.d.
T3 construct: expressed in transfected cells; host or cells: Chinese hamster ovary (CHO FcεRI+) cells
T3 sequence (P12319 26-257): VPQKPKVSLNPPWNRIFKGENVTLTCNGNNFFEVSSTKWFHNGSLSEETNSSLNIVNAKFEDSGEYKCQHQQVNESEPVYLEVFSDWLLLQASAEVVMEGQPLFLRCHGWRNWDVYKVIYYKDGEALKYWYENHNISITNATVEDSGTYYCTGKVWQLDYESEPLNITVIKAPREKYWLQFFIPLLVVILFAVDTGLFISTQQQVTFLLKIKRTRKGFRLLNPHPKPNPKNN
Outline: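 Peptides, serially diluted 1:3 from 50-500 uM, preincubated 1 h at room temperature on CHO cells expressing human FcεRI alpha, then 1.5 nM 125I-IgE added for 45-60 min at 4 °C. Buffer F12/DMEM, 1% BSA, 0.05% NaN3, pH 7.2. Bound counts by gamma counting; IC50 from 4-parameter fits.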

FcεRI = molecular target: T4, FcεRI (Homo sapiens, UniProt P12319); assay: competitive phage ELISA on baculovirus-derived FcεRI; type: binding; conditions: for relative binding affinity (in words): compared with the parent
T4 construct: human FcεRI(aa 1-176) was expressed using a baculovirus secretion expression system; host or cells: Hi-5 insect cells infected with baculovirus (virus produced in Sf9; transfer vector pAcGP67)
T4 sequence (P12319 26-201): T2 sequence (P12319 26-201)
Excerpt: The extracellular domain of the alpha subunit of the human FcεRI(aa 1-176) was expressed using a baculovirus secretion expression system (Pharminten). cDNA encoding this domain was obtained through PCR of a plasmid containing a full length clone. The DNA fragment was ligated into baculovirus tranfer vector pAcGP67 and along with BaculoGold linearized baculovirus DNA was transfected into Sf9 cells Spodoptera frugiperda insect cells for baculovirus production (Pharmingen). Soluble FcεRI was affinity purified from the growth media of baculovirus infected Hi-5 insect cells (Expression Systems).
Phage ELISA assays were carried out as described (Lowman, 1998, supra), using Nunc Maxisorp™ plates coated with a 2 μg/mL solution of baculovirus-derived FcεRI. Peptide-phage were pre-incubated for 5-10 min with serial dilutions of receptor, then added to the receptor-coated plate. After incubation for 1 h at room temperature, the plates were washed and an anti-phage HRP-conjugated antibody (Pharmacia) was added. After further incubation for 20 min, plates were again washed and developed using the substrate OPD (Sigma). Optical density at 492 nm was read and plotted as a function of FcεRI concentration to determine an IC50 of inhibition by each peptide-phage variant.
A phage-based alanine scanning approach was used to map the FcεRI binding determinants of IGE134 (SEQ ID NOS:155, 171), as described above for IGE120 (SEQ ID NO:131, 159). […] Additionally, combinations of Ala mutations, deletions, and other substitutions were tested.

[3] = g3 phage clones, immobilized FcεRI-IgG, titrated soluble FcεRI-IgG, read-out: Phage IC50
[4] = truncated peptides on g3 phage, read-out: IC50

Relative (IC50) (fold weaker) (FcεRI-IgG; truncated peptides on g3 phage): NDB
Compound: RCTEGPWGWVCMAAD [g3c.17]

Relative (IC50) (fold weaker) (FcεRI-IgG; truncated peptides on g3 phage): 1X
IC50 (FcεRI-IgG; [4]): 5 nM
Compound: NLPRCTEGPWGWVCMAA [g3c.29]

Relative (IC50) (fold weaker) (FcεRI-IgG; truncated peptides on g3 phage): 1X
IC50 (FcεRI-IgG; [4]): 3.1 nM and 5.6 nM
Compound: NLPRCTEGPWGWVCMAAD [g3c.42]

Relative (IC50) (fold weaker) (FcεRI-IgG; truncated peptides on g3 phage): 1X
IC50 (FcεRI-IgG; [4]): 6.1 nM
Compound: NLPRCTEGPWGWVCMA [g3c.31]

Relative (IC50) (fold weaker) (FcεRI-IgG; truncated peptides on g3 phage): 1X
IC50 (FcεRI-IgG; [4]): 3 nM
Compound: LPRCTEGPWGWVCMAAD [g3c.1]

Relative (IC50) (fold weaker) (FcεRI-IgG; truncated peptides on g3 phage): 3X
IC50 (FcεRI-IgG; [4]): 14.6 nM
Compound: NLPRCTEGPWGWVCM [g3c.34]

Relative (IC50) (fold weaker) (FcεRI-IgG; truncated peptides on g3 phage): NDB
Compound: CTEGPWGWVCMAAD [g3c.21]

More lines, now with the values behind:

Compound: GRAQCTEGPWGWVCMAAD [g3b.6]
IC50 (FcεRI-IgG; [3]): 16 nM

Compound: VMPTCTEGPWGWVCMAAD [g3b.4]
IC50 (FcεRI-IgG; [3]): 7 nM

Compound: DLPACTEGPWGWVCMAAD [g3b.7]
IC50 (FcεRI-IgG; [3]): 9 nM

Compound: CC(C)C[C@H](NC(=O)[C@H](C)N)C(=O)N[C@H]1CSSC[C@@H](C(=O)N[C@@H](Cc2ccc(O)cc2)C(=O)N[C@H](C(N)=O)C(C)C)NC(=O)[C@H](C(C)C)NC(=O)[C@H](C)NC(=O)[C@@H]2CCCN2C(=O)[C@@H](NC(=O)[C@H](CC(C)C)NC(=O)[C@H](C)N)CSSC[C@@H](C(=O)N[C@@H](Cc2ccc(O)cc2)C(=O)N[C@H](C(N)=O)C(C)C)NC(=O)[C@H](C(C)C)NC(=O)[C@H](C)NC(=O)[C@@H]2CCCN2C1=O [IGE089] (I: H-ALCPAVCYV-NH2 / II: H-ALCPAVCYV-NH2; disulfide I:3-II:7, I:7-II:3)
Structure Score [1]: +++
EC50 (FcεRIα): 64 µM
inhibiting 125I-IgE binding to cell surface expressed FcεRI (in words) [2]: Significant inhibitory activity
IC50 [2]: 64 µM

Compound: AMAQCTEGPWGWVCMAAD [g3b.5]
IC50 (FcεRI-IgG; [3]): 10 nM

Compound: IVCPRLCYELDYELCPDVCYV
fold improved affinity over IGE120 (FcεRI; clone from IGE120-phage library): about 2 fold

Compound: VQCPHFCYVGGKALCPDVCYV
relative binding affinity (in words) (FcεRI): improved binding affinity

Compound: NLPTCTEGPWGWVCMAAD [g3b.3]
IC50 (FcεRI-IgG; [3]): 7 nM

Compound: GRTECTEGPWGWVCMAAD [g3b.8]
IC50 (FcεRI-IgG; [3]): 14 nM

Compound: CC(C)[C@H](N)C(=O)N[C@@H](CCC(N)=O)C(=O)N[C@H]1CSSC[C@@H](C(=O)N[C@@H](Cc2ccc(O)cc2)C(=O)N[C@H](C(N)=O)C(C)C)NC(=O)[C@H](Cc2ccccc2)NC(=O)[C@H](Cc2c[nH]cn2)NC(=O)[C@@H]2CCCN2C1=O [IGE129, VQCPHFCYV-nh2] (H-VQCPHFCYV-NH2; disulfide 3-7)
EC50 (FcεRIα): > 90 µM

Compound: NLPRCTEGPWGWVCMAAD [g3b.1]
IC50 (FcεRI-IgG; [3]): 13 nM

Compound: IVCPRLCYVGGKALCPDVCYV [SEQ ID NO:131]
relative binding affinity (in words) (FcεRI): improved binding affinity

Compound: CC(C)C[C@H](NC(=O)[C@H](C)N)C(=O)N[C@H]1CSSC[C@H](NC(=O)[C@H](CC(C)C)NC(=O)[C@H](C)N)C(=O)N2CCC[C@H]2C(=O)N[C@@H](C)C(=O)N[C@@H](C(C)C)C(=O)N[C@H](C(=O)N[C@@H](Cc2ccc(O)cc2)C(=O)N[C@H](C(N)=O)C(C)C)CSSC[C@@H](C(=O)N[C@@H](Cc2ccc(O)cc2)C(=O)N[C@H](C(N)=O)C(C)C)NC(=O)[C@H](C(C)C)NC(=O)[C@H](C)NC(=O)[C@@H]2CCCN2C1=O [IGE088, ALCPAVCYV-nh2] (I: H-ALCPAVCYV-NH2 / II: H-ALCPAVCYV-NH2; disulfide I:3-II:3, I:7-II:7; N-terminus assumed)
Structure Score [1]: +/−
EC50 (FcεRIα): > 450 µM
IC50 [2]: > 450 µM

Compound: IVCPRLCYVGGKALCPDVCAV [SEQ ID NO:143]
fold reduction in binding affinity compared to IGE120 (FcεRI; IGE120-phage alanine scan): No detectable binding
